# Measured values: patent US20240180920A1, “CERTAIN FASCIN BINDING COMPOUNDS FOR SPINOGENESIS” (Spinogenix, Inc., priority 2021, published 2024)
# Columns and labels:
# [1] = system: primary mouse hippocampal neurons; experiment: Synaptic density (colocalized PSD95/VGlut elements per length of dendrite) in treated neurons, FIG. 1; type: cell-based; settings: 10 μM compared with 500 nM and 50 nM, 24 hours
# Protocol: Specifically, primary mouse hippocampal neurons were treated on day 14 in culture with one of the four compounds, each at concentrations of 10 μM, 500 nM, and 50 nM, or with control (vehicle (0.1% DMSO)) for 24 hours. Following the treatments, neurons were fixed in 4% paraformaldehyde and processed for staining with phalloidin and immunolabeling with antibodies to the postsynaptic marker PSD95, and the presynaptic marker VGlut. Images were acquired using a laser scanning confocal microscope and analyzed for the number of colocalized pre and post synaptic elements per length of dendrite. Studies were performed across 3 biological preparations of primary neurons, with a minimum of 12 dendritic segments analyzed per treatment/prep. Graphing and statistical analyses of synaptic density data were performed with Prism software.
# [2] = target: fascin actin-binding site 2 (Homo sapiens, UniProt Q16658); settings: stated as known; cited from earlier work
# fascin = fascin (Homo sapiens, UniProt Q16658); settings: stated as known; cited from earlier work
SMILES,concentration dependence of activity (synaptic density) [1],interaction with or binding to fascin [2],effect on fascin's actin-bundling activity (fascin)
N=C(N)NCCCCC(=O)Nc1cc(C(F)(F)F)cc(NC(=O)c2cc(C(=O)Nc3cc(C(F)(F)F)cc(NC(=O)CCCCNC(=N)N)c3O[C@@H]3CCNC3)ncn2)c1O[C@@H]1CCNC1 (racemic) [brilacidin],higher activities at the concentration of 10 μM than at lower concentrations,–,–
CN(C)CCCN1c2ccccc2CCc2ccccc21 [imipramine],higher activities at the concentration of 10 μM than at lower concentrations,known to interact with or bind fascin at actin-binding site 2,interact or inhibit fascin's actin-bundling activity
C/C(=N\NC(=N)N)c1cc(NC(=O)CCCCCCCCC(=O)Nc2cc(/C(C)=N/NC(=N)N)cc(/C(C)=N/NC(=N)N)c2)cc(/C(C)=N/NC(=N)N)c1 [semapimod],higher activities at the concentration of 10 μM than at lower concentrations,–,–
